Assay results published in patent US6596878B2, “Methods and compositions for inhibiting cell proliferative disorders” (Yissum Research & Development Company of the Hebrew …, priority 1994, dated 2003).

Key:
[1] = target: T1, chimeric receptor containing the EGFR extracellular domain and the HER2 intracellular kinase domain (Homo sapiens, UniProt P04626); test: EGFR-HER2 chimeric receptor whole cell kinase assay (E/HER2-3T3); format: cell-based; conditions: Table VI, cellular kinase assay
T1 construct: P00533 (Epidermal growth factor receptor)
Excerpt: (§1) This example illustrates the ability of the exemplary compounds to inhibit receptor tyrosine kinases, such as HER2 and/or EGFR. The following target cells were used for cellular kinaseassays: NIH3T3 clone C7 (Honegger et al., supra) engineered to over-express human EGF receptor; NIH3T3 cells engineered to over-express a chimeric receptor containing the EGFR extracellular domain and the HER2 intracellular kinase domain; the human mammary carcinoma line BT474 (ATCC HTB2) expressing HER2; and the human glioblastoma line U1242 that expresses PDGFR-β. Growth assays were carried out using human mammary epithelial SKBR3 (ATCC HTB30) cells, SKOV3 (ATCC HTB77) human ovarian cancer cell line, A431 cells, MCF7 human breast carcinoma cells, MCF7 cells overexpress the HER2 kinase (MCF7-HER2), NIH3T3 cells, and NIH3T3 cells overexpressing the HER2 kinase (3T3-HER2).
2. EGFR-HER2 Chimeric Receptor
HER2 kinase activity (EGFR-3T3) in whole cells was measured as described below:
The following protocol was used:
A. Coat ELISA plates (Corning, 96 well, Cat. #25805-96) with 05-101 antibody at 0.5 μg per well in PBS, 100 μl final volume/well, and store overnight at 4° C. Coated plates are good for up to 10 days when stored at 4° C.
B. On day of use, remove coating buffer and replace with 100 μl blocking buffer (5% Carnation Instant Non-Fat Dry Milk in PBS). Incubate the plate, shaking, at room temperature (about 23° C. to 25° C.) for 30 minutes. Just prior to use, remove blocking buffer and wash plate 4 times with TBST buffer.
A. An NIH3T3 cell line overexpressing a chimeric receptor containing the EGFR extracellular domain and extracellular HER2 kinase domain can be used for this assay.
A. Choose dishes having 80-90% confluence for the experiment. Trypsinize cells and stop reaction by adding 10% fetal bovine serum. Suspend cells in DMEM medium (10% CS DMEM medium) and centrifuge once at 1500 rpm, at room temperature for 5 minutes.
B. Resuspend cells in seeding medium (DMEM, 0.5% bovine serum), and count the cells using trypan blue. Viability above 90% is acceptable. Seed cells in DMEM medium (0.5% bovine serum) at a density of 10,000 cells per well, 100 μl per well, in a 96 well microtiter plate. Incubate seeded cells in 5% CO2 at 37° C. for about 40 hours.
A. Check seeded cells for contamination using an inverted microscope. Dilute drug stock (10 mg/ml in DMSO) 1:10 in DMEM medium, then transfer 5 μl to a test well for a final drug dilution of 1:200 and a final DMSO concentration of 1%. Control wells receive DMSO alone. Incubate in 5% CO2 at 37° C. for two hours.
A. Prepare EGF ligand: dilute stock EGF in DMEM so that upon transfer of 10 μl dilute EGF (1:12 dilution), 100 nM final concentration is attained.
B. Prepare fresh HNTG* sufficient for 100 μl per well; and place on ice.
C. After 120 minutes incubation with drug, add prepared EGF ligand to cells, 10 μl per well, to a final concentration of 100 nM. Control wells receive DMEM alone. Incubate, shaking, at room temperature, for 5 minutes.
D. Remove drug, EGF, and DMEM. Wash cells twice with PBS. Transfer HNTG* to cells, 100 μl per well. Place on ice for 5 minutes. Meanwhile, remove blocking buffer from other ELISA plate and wash with TBST as described above.
E. With a pipette tip securely fitted to a micropipettor, scrape cells from plate and homogenize cell material by repeatedly aspirating and dispensing the HNTG* lysis buffer. Transfer lysate to a coated, blocked, and washed ELISA plate. Incubate shaking at room temperature for one hour.
F. Remove lysate and wash 4 times with TBST. Transfer freshly diluted anti-Ptyr antibody to ELISA plate at 100 μl per well. Incubate shaking at room temperature for 30 minutes in the presence of the anti-Ptyr antiserum (1:3000 dilution in TBST).
G. Remove the anti-Ptyr antibody and wash 4 times with TBST. Transfer the freshly diluted TAGO anti-rabbit IgG antibody to the ELISA plate at 100 μl per well. […]

[2] = test system: NIH3T3 cells overexpressing the HER2 kinase (3T3-HER2); test: 3T3 growth assay, HER2C7 cells (3T3-HER2); format: cell-based; conditions: Mus musculus, NIH3T3, 96 h, Table VI, 2% FBS, 4 days
Excerpt: as §1
The 3T3 growth assay was carried out as follows:
(1) Dulbecco's Modified Eagle Medium (D-MEM), Gibco 11965-050;
(4) Fetal Bovine Serum Certified, Gibco 16000-028;
(5) Dulbecco's Phosphate-Buffered Saline (D-PBS), Gibco 14190-029;
(6) Sulforhodamine B (SRB), Sigma S-9012. 0.4% SRB in 1% acetic acid;
(7) 10 mM Tris-base, Fisher BP152-5;
(8) 10% TCA, Trichloroacetic acid, Fisher A322-500;
(9) 96-well flat bottom plate (sterile), Corning 08-757-155;
(10) 100 ml reagent reservoir 9 (sterile), Matrix Technologies Corporation, 8086;
(11) Sterile pipet tips, Fisher 21-197-8E;
NIH3T3C7 cells in 10% CS+2 mM GLN DMEM HER2C7 cells in 2% FBS+2 mM GLN DMEM
(1) HER2C7 (engineered to express HER2) and NIH3T3C7 (as the control) cells are used for this assay. NIH3T3C7 cells are seeded at 2500 cells/well, […] in 10% CS+2 mM GLN DMEM, in a 96 well plate; HER2C7 cells are seeded at 6000 cells/well, 100 μl/well in 2% FBS+2 mM GLN DMEM, in a 96 well plate. Cells are incubated at 37° C., 5% CO2 overnight to allow for cell attachment to the plate;
(2) The test compound is added to the cells at day 2. The compounds are prepared in the appropriate growth medium (10% CS+2 mM) GLN DMEM for NIH3T3C7 cells; 2% FBS+2 mM GLN DMEM for HER2C7 cells) in a 96 well plate, and serially diluted. A total of 100 μl/well medium of the diluted compounds is added into the cells. The total volume of each well is 200 μl. Quadruplicates (wells) and 11 concentration points are applied to each compound tested.
(3) After the cells are treated with the compound for 4 days, the cells are washed with PBS and fixed with 200 μl/well ice-cold 10% TCA for one hour at 0-5° C. condition.
(4) Remove TCA and rinse wells 5 times with deionized water. Dry plates upside down with paper towels. Stain cells with 0.4% SRB at 100 μl/well for 10 minutes.
(5) Pour off SRB and rinse plate 5 times with 1% acetic acid. Dry plate completely.
(6) Solubilize the dye with 10 mM Tris-base at 100 μl/well for 10 minutes on a shaker.
(7) Read the plate at dual wavelengths at 570 nm and 630 nm on Dynatech Elisa plate reader.

| Compound | IC50 [1] [µM] | IC50 [2] [µM] |
| --- | --- | --- |
| CC(C)(C)c1cc(/C=C(\C#N)C(N)=S)cc(C(C)(C)C)c1O [Compound M11] | > 100 | 30 |
| N#C/C(=C\c1ccc(O)c(O)c1)C(=S)NCc1ccccc1 [Compound M13] | > 100 | – |
| N#C/C(=C\c1ccc(O)c(O)c1)C(=O)Nc1cccc(C(F)(F)F)c1 [Compound M15] | > 100 | – |
| CC(C)(C)c1cc(/C=C(\C#N)C(=O)NCCCc2ccccc2)cc(C(C)(C)C)c1O [Compound M20, (E)-3-(3,5-di-t-Butyl-4-hydroxyphenyl)-2-[(3-phenyl-n-propyl)aminocarbonyl]acrylonitrile] | – | 4 |
| CC(C)c1cc(/C=C(\C#N)C(=O)NCCCc2ccccc2)cc(C(C)C)c1O [Compound M21, (E)-3-(3,5-Diisopropyl-4-hydroxyphenyl)-2-[(3-phenyl-n-propyl)aminocarbonyl]acrylonitrile] | > 100 | 70 |
| CC(C)c1cc(C=C(C#N)C(N)=C(C#N)C#N)cc(C(C)C)c1O [Compound M22, (E)-2-(1-Amino-2,2-dicyanoethenyl-3-(3,5-diisopropyl-4-hydroxyphenyl)acrylonitrile)] | > 100 | – |
| CC(C)c1cc(/C=C(\C#N)C(=S)NCCCc2ccccc2)cc(C(C)C)c1O [Compound M24, (E)-3-(3,5-Diisopropyl-4-hyrdroxyphenyl)-2-[(3-phenyl-n-propyl)aminothiocarbonyl]acrylonitrile] | > 100 | – |
| CC(C)c1cc(/C=C(\C#N)S(=O)(=O)c2ccccn2)cc(C(C)C)c1O [Compound M26] | > 100 | > 100 |
| CC(C)c1cc(/C=C(\C#N)S(=O)(=O)CC#N)cc(C(C)C)c1O [Compound M27] | > 100 | 50 |
| CC(C)c1cc(/C=C(\C#N)S(=O)(=O)/C(C#N)=C/c2cc(C(C)C)c(O)c(C(C)C)c2)cc(C(C)C)c1O [Compound M29] | > 100 | 15 |
| CC(C)c1cc(/C=C(\C#N)S(=O)(=O)c2ccccc2)cc(C(C)C)c1O [Compound M30] | 18.3 | 12 |
| Cc1cc(/C=C(\C#N)S(=O)(=O)c2ccccc2)cc(C)c1O [Compound M31] | > 100 | > 100 |
| Cc1cc(/C=C(\C#N)S(=O)(=O)c2ccccn2)cc(C)c1O [Compound M32] | > 100 | 80 |
| CC(C)(C)c1cc(/C=C(\C#N)S(=O)(=O)c2ccccc2)cc(C(C)(C)C)c1O [Compound M33, (E)-3-(3,5-di-t-Butyl-4-hydroxyphenyl)-2-(phenylsulfonyl)acrylonitrile] | > 100 | 9 |
| CC(C)(C)c1cc(/C=C(\C#N)S(=O)(=O)c2ccccn2)cc(C(C)(C)C)c1O [Compound M34, (E)-3-(3,5-di-t-Butyl-4-hydroxyphenyl)-2-[(pyrid-2-yl)sulfonyl]acrylonitrile] | > 100 | 5.5 |
| CC(C)(C)c1cc(/C=C(\C#N)C(=O)Nc2ccc(C(F)(F)F)cc2)cc(C(C)(C)C)c1O [Compound M35, (E)-3-(3,5-di-t-Butyl-4-hydroxyphenyl)-2-[(4-trifluoromethyl)phenylaminocarbonyl]acrylonitrile] | > 100 | 0.25 |
| CC(C)(C)c1cc(/C=C(\C#N)S(=O)(=O)CC#N)cc(C(C)(C)C)c1O [Compound M36, (E)-3-(3,5-di-t-Butyl-4-hydroxyphenyl)-2-(cyanomethylsulfonyl)acrylonitrile] | > 100 | – |
| (E,E)-2-[[-Cyano-2-(3,5-diisopropyl-4-hydroxyphenyl)ethenyl]sulfonyl]-3-(3,5-di-t-butyl-4-hydroxyphenyl)acrylonitrile [Compound M37] | > 100 | – |
